System: D5 Th1 T cell line
Assay: nucleic acid expression profile of D5 Th1 T cell line stimulated with 500 nM ionomycin, 1 μM CsA plus ionomycin or 20 nM PMA plus ionomycin; 19K chip, second replicate
Type: cell-based, murine
Design: expression level of Msa.15983.0_f_at / expression level of Msa.1669.0_f_at / expression level of Msa.18713.0_g_at / expression level of D86609_s_at / expression level of TC19211_at / expression level of TC21156_at / expression level of TC24045_at / expression level of TC30384_g_at / expression level of TC3225_at / expression level of TC38978_at / expression level of TC39080_at / expression level of TC17495_at: unit not given here
Procedure: D5 or primary T cells from NFAT1−/− or wild type DO11.10 transgenic mice were stimulated for 2, 6 or 16 hours with 500 nM ionomycin, 20 nM PMA plus 500 nM ionomycin, or 1 μM CsA plus 500 nM ionomycin. Total RNA was isolated with an RNeasy kit (QIAGEN). Ten μg of total RNA was quantitatively amplified and biotin-labeled as described (Byrne et al., (2000) “Preparation of mRNA for Expression Monitoring” Current Protocols in Molecular Biology (John Wiley & Sons, Inc.) pp. 22.22.21-22.22.13). […] Chips were washed, stained with SA-PE and read using an Affymetrix GeneChip® scanner and accompanying gene expression software. Labeled bacterial RNAs of known concentration were spiked into each chip hybridization mix to generate an internal standard curve, allowing normalization between chips and conversion of raw hybridization intensity values to mRNA frequency (mRNA molecules per million).
Nucleic acid expression profiles were obtained from a T cell line at multiple time points and in various T cell states. The D5 Th1 T cell line was stimulated in three different ways: 1) ionomycin alone (e.g., causing the regulatory factor NFAT to move from the cytoplasm to the nucleus); 2) ionomycin+PMA (e.g., causing both NFAT and the transcription factor AP-1 to enter the nucleus); 3) ionomycin +cyclosporin A (CsA) (e.g., preventing NFAT from entering the nucleus in response to ionomycin). […] Cells were stimulated for 0, 2, 6, and 16 hours. […] The experiment was done twice (i.e., with two replicates, Rep. 1 and Rep. 2). Nucleic acid expression at the 2, 6 and 16 hour timepoints was compared to nucleic acid expression at 0 hours.
The nucleic acid expression data was stored in a computer database. A database query was used to identify all nucleic acids that were deemed “increasing” or “decreasing” in response to ionomycin (relative to the 0 hour sample) in at least one timepoint in Rep. 1, and the nucleic acids were also deemed “increasing” or “decreasing” in response to ionomycin in Rep. 2.
To test the hypothesis that NFAT in the absence of AP-1 and NFKB induced a genetic program of anergy, genes induced in D5 T cells by ionomycin stimulation alone were evaluated (FIGS. 1, 2 and 6). Samples from D5 cells stimulated with ionomycin plus CsA, which blocks anergy induction, and ionomycin plus PMA, which pharmacologically mimic complete stimulation through the TCR and CD28 were included. RNA was prepared from unstimulated D5 T cells and from cells stimulated for 2, 6 or 16 h under these three conditions, and gene transcription profiles were evaluated using Affymetrix oligonucleotide arrays (FIG. 6A).

## C[C@H](CCC(=O)O)C[C@H](C)C[C@H](C)C(=O)/C=C(\O)[C@H](C)C[C@H](C)C/C=C/[C@@H](C)[C@@H](O)[C@@H](C)[C@@H](O)C[C@@H]1CC[C@@](C)([C@H]2CC[C@@](C)([C@@H](C)O)O2)O1 [Ionomycin, ionomycin]
2 h
  expression level of D86609_s_at: 34
  expression level of ET63436_at: 113
  expression level of MIP1-B_at: 110.5
  expression level of Msa.11439.0_s_at: 19
  expression level of Msa.15983.0_f_at: 44
  expression level of Msa.1669.0_f_at: 27
  expression level of Msa.18713.0_g_at: 83
  expression level of Msa.21745.0_s_at: 8
  expression level of TC3225_at: 34
  expression level of TC14671_g_at: 7
  expression level of TC16364_at: 4
  expression level of TC16828_at: 4
  expression level of TC17132_at: 121
  expression level of TC17495_at: 9
  expression level of TC17558_at: 41
  expression level of TC18221_at: 9
  expression level of TC19211_at: 48
  expression level of TC21156_at: 20
  expression level of TC23346_s_at: 5
  expression level of TC23450_s_at: 16
  expression level of TC24045_at: 15
  expression level of TC24067_at: 9
  expression level of TC25965_at: 42
  expression level of TC27326_g_at: 3
  expression level of TC29889_at: 11
  expression level of TC30384_g_at: 39
  expression level of TC30935_at: 93
  expression level of TC30992_s_at: 28
  expression level of TC31681_at: 56
  expression level of TC33206_at: 45
  expression level of TC33833_at: 23
  expression level of TC34186_at: 40
  expression level of TC36089_at: 156
  expression level of TC36583_at: 29
  expression level of TC37631_at: 18
  expression level of TC38094_at: 18
  expression level of TC38978_at: 6
  expression level of TC39012_at: 64
  expression level of TC39080_at: 14
  expression level of TC39762_at: 16
  expression level of TC40487_g_at: 16
  expression level of TC41014_at: 23
  expression level of U44731_s_at: 69
  expression level of X67914_s_at: 53
  expression level of Z31202_s_at: 10
  expression level of aa144045_s_at: 24
  expression level of aa174748_at: 31
  expression level of c81206_rc_at: 15
  expression level of k00083_s_at: 41
  expression level of x12531_s_at: 68
6 h
  expression level of D86609_s_at: 34
  expression level of ET63436_at: 60
  expression level of MIP1-B_at: 85.5
  expression level of Msa.11439.0_s_at: 22
  expression level of Msa.15983.0_f_at: 60
  expression level of Msa.1669.0_f_at: 32
  expression level of Msa.18713.0_g_at: 58
  expression level of Msa.21745.0_s_at: 12
  expression level of TC3225_at: 22
  expression level of TC14671_g_at: 15
  expression level of TC16364_at: 5
  expression level of TC16828_at: 17
  expression level of TC17132_at: 155
  expression level of TC17495_at: 12
  expression level of TC17558_at: 57
  expression level of TC18221_at: 17
  expression level of TC19211_at: 22
  expression level of TC21156_at: 25
  expression level of TC23346_s_at: 12
  expression level of TC23450_s_at: 21
  expression level of TC24045_at: 15
  expression level of TC24067_at: 19
  expression level of TC25965_at: 35
  expression level of TC27326_g_at: 4
  expression level of TC29889_at: 10
  expression level of TC30384_g_at: 29
  expression level of TC30935_at: 60
  expression level of TC30992_s_at: 9
  expression level of TC31681_at: 31
  expression level of TC33206_at: 19
  expression level of TC33833_at: 23
  expression level of TC34186_at: 38
  expression level of TC36089_at: 149
  expression level of TC36583_at: 26
  expression level of TC37631_at: 12
  expression level of TC38094_at: 10
  expression level of TC38978_at: 3
  expression level of TC39012_at: 42
  expression level of TC39080_at: 11
  expression level of TC39762_at: 15
  expression level of TC40487_g_at: 8
  expression level of TC41014_at: 18
  expression level of U44731_s_at: 54
  expression level of X67914_s_at: 39
  expression level of Z31202_s_at: 17
  expression level of aa144045_s_at: 17
  expression level of aa174748_at: 19
  expression level of c81206_rc_at: 13
  expression level of k00083_s_at: 45
  expression level of x12531_s_at: 49
16 h
  expression level of D86609_s_at: 45
  expression level of ET63436_at: 107
  expression level of MIP1-B_at: 97.5
  expression level of Msa.11439.0_s_at: 36
  expression level of Msa.15983.0_f_at: 56
  expression level of Msa.1669.0_f_at: 50
  expression level of Msa.18713.0_g_at: 49
  expression level of Msa.21745.0_s_at: 12
  expression level of TC3225_at: 37
  expression level of TC14671_g_at: 30
  expression level of TC16364_at: 10
  expression level of TC16828_at: 31
  expression level of TC17132_at: 126
  expression level of TC17495_at: 12
  expression level of TC17558_at: 98
  expression level of TC18221_at: 25
  expression level of TC19211_at: 22
  expression level of TC21156_at: 31
  expression level of TC23346_s_at: 13
  expression level of TC23450_s_at: 22
  expression level of TC24045_at: 25
  expression level of TC24067_at: 31
  expression level of TC25965_at: 50
  expression level of TC27326_g_at: 5
  expression level of TC29889_at: 13
  expression level of TC30384_g_at: 53
  expression level of TC30935_at: 86
  expression level of TC30992_s_at: 12
  expression level of TC31681_at: 22
  expression level of TC33206_at: 12
  expression level of TC33833_at: 23
  expression level of TC34186_at: 50
  expression level of TC36089_at: 165
  expression level of TC36583_at: 31
  expression level of TC37631_at: 29
  expression level of TC38094_at: 16
  expression level of TC38978_at: 8
  expression level of TC39012_at: 77
  expression level of TC39080_at: 24
  expression level of TC39762_at: 37
  expression level of TC40487_g_at: 13
  expression level of TC41014_at: 33
  expression level of U44731_s_at: 25
  expression level of X67914_s_at: 36
  expression level of Z31202_s_at: 45
  expression level of aa144045_s_at: 22
  expression level of aa174748_at: 21
  expression level of c81206_rc_at: 39
  expression level of k00083_s_at: 72
  expression level of x12531_s_at: 84

Reference: patent US20030064380A1, “Anergy-regulated molecules” (The Center For Blood Research, Inc., priority 2001, published 2003)
